± gives the standard deviation of the averaged measurements.
Assays:
Details in all cases: 72 h
U2OS [1] = assay: cell viability relative to DMSO; higher = less toxic
Calu-3 [2] = assay: as above
Caco-2 [3] = assay: as above
HepG2 [4] = assay: as above
Vero E6 [5] = assay: as above
U2OS [6] = assay: drug sensitivity score (DSS) for viability; higher = more toxic; extreme values may be limits of the assay
Calu-3 [7] = assay: as above
Caco-2 [8] = assay: as above
HepG2 [9] = assay: as above
Vero E6 [10] = assay: as above
U2OS [11] = assay: relative viability EC50 (midpoint between 100% and the lowest measured viability); higher = less toxic
Calu-3 [12] = assay: as above
Caco-2 [13] = assay: as above
HepG2 [14] = assay: as above
Vero E6 [15] = assay: as above

| SMILES | cell viability (U2OS [1]; 1 nM) | cell viability (U2OS [1]; 10 nM) | cell viability (U2OS [1]; 100 nM) | cell viability (U2OS [1]; 1000 nM) | cell viability (U2OS [1]; 10000 nM) | cell viability (Calu-3 [2]; 1 nM) | cell viability (Calu-3 [2]; 10 nM) | cell viability (Calu-3 [2]; 100 nM) | cell viability (Calu-3 [2]; 1000 nM) | cell viability (Calu-3 [2]; 10000 nM) | cell viability (Caco-2 [3]; 1 nM) | cell viability (Caco-2 [3]; 10 nM) | cell viability (Caco-2 [3]; 100 nM) | cell viability (Caco-2 [3]; 1000 nM) | cell viability (Caco-2 [3]; 10000 nM) | cell viability (HepG2 [4]; 1 nM) | cell viability (HepG2 [4]; 10 nM) | cell viability (HepG2 [4]; 100 nM) | cell viability (HepG2 [4]; 1000 nM) | cell viability (HepG2 [4]; 10000 nM) | cell viability (Vero E6 [5]; 1 nM) | cell viability (Vero E6 [5]; 10 nM) | cell viability (Vero E6 [5]; 100 nM) | cell viability (Vero E6 [5]; 1000 nM) | cell viability (Vero E6 [5]; 10000 nM) | drug sensitivity score (U2OS [6]) | drug sensitivity score (Calu-3 [7]) | drug sensitivity score (Caco-2 [8]) | drug sensitivity score (HepG2 [9]) | drug sensitivity score (Vero E6 [10]) | relative viability EC50 (U2OS [11]) | relative viability EC50 (Calu-3 [12]) | relative viability EC50 (Caco-2 [13]) | relative viability EC50 (HepG2 [14]) | relative viability EC50 (Vero E6 [15]) |
| --- | --- | --- | --- | --- | --- | --- | --- | --- | --- | --- | --- | --- | --- | --- | --- | --- | --- | --- | --- | --- | --- | --- | --- | --- | --- | --- | --- | --- | --- | --- | --- | --- | --- | --- | --- |
| O=[N+]([O-])c1ccc2c(c1)S(=O)(=O)C=C2 [stattic] | 99.1% | 95.6% | 98.6% | 94% | 0.6% | 107% | 95.2% | 97.7% | 117% | 27.3% | 97.6% | 90.3% | 99% | 91.2% | 16.1% | 96.3% | 95.7% | 107% | 102% | -0.2% | 95.8% | 99% | 99.1% | 95.3% | 2.5% | 6.4 | 3.2 | 6.1 | 5.4 | 6.1 | 2.69 µM | 3.99 µM | 2.3 µM | 3.29 µM | 2.79 µM |
| COC(=O)N[C@H](C(=O)N1CCC[C@H]1C(=O)Nc1ccc([C@@H]2CC[C@@H](c3ccc(NC(=O)[C@@H]4CCCN4C(=O)[C@@H](NC(=O)OC)C(C)C)cc3)N2c2ccc(C(C)(C)C)cc2)cc1)C(C)C [ombitasvir] | 94.3% | 95.1% | 100% | 98% | 86.5% | 105% | 100% | 108% | 98.1% | 91.7% | 96% | 104% | 95.1% | 96.8% | 100% | 99.4% | 100% | 92.1% | 92.3% | 108% | 99.8% | 96.2% | 94.2% | 94.9% | 102% | 0.3 | 0 | 0 | 0 | 0 | > 10 µM | > 10 µM | > 10 µM | > 10 µM | > 10 µM |
| CN1C(=O)c2c(nn(Cc3ccc(-c4cccc(F)n4)cc3)c2Nc2ccccc2)N2C1=N[C@@H]1CCC[C@@H]12 [ITI214] | 106% | 102% | 102% | 96.7% | 89.3% | 105% | 87% | 100% | 101% | 92.8% | 87.3% | 104% | 97.4% | 94.8% | 117% | 105% | 96.7% | 97.9% | 102% | 79.7% | 110% | 113% | 99.6% | 104% | 97.2% | 0 | 0 | 0 | 0.5 | 0 | > 10 µM | > 10 µM | > 10 µM | > 10 µM | > 10 µM |
| CCC(=O)O[C@@H](O[P@@](=O)(CCCCc1ccccc1)CC(=O)N1C[C@H](C2CCCCC2)C[C@H]1C(=O)O)C(C)C [fosinopril] | 103% | 97.2% | 105% | 97.7% | 104% | 98.3% | 89.7% | 103% | 85.7% | 100% | 100% | 95.3% | 99.3% | 92.7% | 103% | 103% | 92.7% | 93.7% | 103% | 97.9% | 99.8% | 97.8% | 92.7% | 95.4% | 99.6% | 0 | 0 | 0 | 0 | 0 | > 10 µM | > 10 µM | > 10 µM | > 10 µM | > 10 µM |
| c1ccc2c(Cc3c[nH]c4ccccc34)c[nH]c2c1 [3,3'-diindolylmethane] | 100% | 102% | 101% | 104% | 94.3% | 104% | 98.5% | 97.2% | 104% | 98.6% | 108% | 117% | 91.3% | 117% | 102% | 93.6% | 101% | 97% | 86.8% | 91.7% | 99% | 102% | 100% | 93.4% | 89.3% | 0 | 0 | 0 | 1.1 | 0.1 | > 10 µM | > 10 µM | > 10 µM | > 10 µM | > 10 µM |
| O=C(O)CCNc1cc(N2CCc3ccccc3CC2)nc(-c2cccnc2)n1 [GSK-J2] | 98.5% | 95.4% | 94.8% | 98.3% | 91.2% | 100% | 97.1% | 91.5% | 105% | 97.2% | 96.6% | 100% | 98.6% | 94.8% | 87.1% | 99.7% | 97.3% | 96.6% | 98.8% | 103% | 97.3% | 108% | 98.9% | 98% | 99.1% | 0 | 0 | 0.2 | 0 | 0 | > 10 µM | > 10 µM | > 10 µM | > 10 µM | > 10 µM |
| Cc1ccc(S(N)(=O)=O)cc1 [para-toluenesulfonamide] | 100% | 96% | 97.7% | 102% | 104% | 102% | 94.8% | 91.1% | 91.8% | 95.9% | 103% | 99.2% | 98.1% | 98.9% | 100% | 105% | 107% | 110% | 94.4% | 120% | 102% | 94.6% | 98.4% | 99.2% | 103% | 0 | 0 | 0 | 0 | 0 | > 10 µM | > 10 µM | > 10 µM | > 10 µM | > 10 µM |
| COc1ccc(CNC(=O)c2sc3nc(C)cc(C)c3c2N)cc1 | 94.1% | 92.1% | 92.5% | 96.4% | 94.7% | 98.7% | 98.8% | 98.2% | 97.6% | 101% | 95.8% | 96.7% | 93.6% | 97.1% | 93.5% | 83.3% | 94.4% | 93.9% | 91.9% | 107% | 95.8% | 101% | 106% | 93.2% | 94.4% | 0 | 0 | 0 | 0 | 0 | > 10 µM | > 10 µM | > 10 µM | > 10 µM | > 10 µM |
| Cc1c(NC(=O)c2cccnc2)c(=O)n(-c2ccccc2)n1C [nifenazone] | 98.3% | 104% | 102% | 105% | 101% | 106% | 106% | 92.3% | 100% | 106% | 110% | 98.7% | 93.2% | 97.1% | 89.4% | 105% | 91.9% | 109% | 94.4% | 90.6% | 105% | 101% | 99.3% | 101% | 97.2% | 0 | 0 | 0 | 0 | 0 | > 10 µM | > 10 µM | > 10 µM | > 10 µM | > 10 µM |
| CC(C)(C(=O)O)c1ccc(C(=O)CCCN2CCC(OC(c3ccccc3)c3ccccc3)CC2)cc1 [carebastine] | 95.7% | 99.2% | 99.4% | 93.2% | 99.3% | 89.7% | 88.6% | 110% | 100% | 102% | 101% | 101% | 107% | 92.2% | 96.6% | 107% | 97.7% | 94.3% | 108% | 92.9% | 111% | 106% | 95.3% | 104% | 106% | 0 | 0 | 0 | 0 | 0 | > 10 µM | > 10 µM | > 10 µM | > 10 µM | > 10 µM |
| CC(=O)SC[C@@H](Cc1ccccc1)C(=O)NCC(=O)OCc1ccccc1 (racemic) [racecadotril] | 101% | 96.8% | 97.4% | 98.9% | 102% | 92.8% | 96.7% | 95.5% | 105% | 108% | 94.4% | 95.7% | 99.7% | 92.6% | 122% | 105% | 101% | 88.8% | 89.7% | 102% | 105% | 99.3% | 94.1% | 101% | 109% | 0 | 0 | 0 | 0.6 | 0 | > 10 µM | > 10 µM | > 10 µM | > 10 µM | > 10 µM |
| O=C(Oc1cccc2cccnc12)c1ccccc1 [benzoxiquine] | 99.7% | 92.3% | 96.3% | 92.4% | 98.6% | 106% | 94.3% | 95.6% | 96% | 93.7% | 102% | 99.6% | 102% | 99.2% | 98.1% | 104% | 103% | 102% | 102% | 7% | 98.5% | 101% | 99.5% | 98.3% | 93.8% | 0 | 0 | 0 | 5.1 | 0 | > 10 µM | > 10 µM | > 10 µM | 3.26 µM | > 10 µM |
| O=C1C=CC[C@@H]2[C@H]3CCCN4CCC[C@@H](CN12)[C@@H]34 [sophocarpine] | 97.3% | 96.4% | 100% | 98.5% | 106% | 98.8% | 103% | 103% | 98% | 102% | 93.8% | 95.9% | 110% | 97% | 90.3% | 92.1% | 99.1% | 80.5% | 91.2% | 89.4% | 97.8% | 113% | 106% | 109% | 100% | 0 | 0 | 0 | 0 | 0 | > 10 µM | > 10 µM | > 10 µM | > 10 µM | > 10 µM |
| CN1C(=O)N(c2ccc(C#N)c(C(F)(F)F)c2)C(=O)[C@]1(CO)c1ccccc1 [GLPG0492-R-enantiomer] | 101 ± 4.5% | 104 ± 3.9% | 99 ± 1.3% | 101 ± 5.1% | 97.5 ± 4.2% | 95.9 ± 3.8% | 109 ± 4.2% | 106 ± 3.9% | 105 ± 2.9% | 110 ± 15% | 96.1 ± 13% | 99.5 ± 4.8% | 94.4 ± 5.4% | 96 ± 7.1% | 93.7 ± 7.5% | 102 ± 8.3% | 103 ± 2.5% | 102.8 ± 0.78% | 100 ± 5.1% | 102 ± 3.8% | 96.6 ± 0.28% | 101 ± 2.3% | 96.7 ± 4.3% | 97 ± 0.99% | 94.3 ± 8.8% | 0 | 0 | 0 | 0 | 0 | > 10 µM | > 10 µM | > 10 µM | > 10 µM | > 10 µM |

Reference: the supplement of paper PMC13380429
